Assay results taken from patent publication EP0408749A1, “DERIVATIVES OF 3,18-DIHYDROXY-9,13-EPOXYLABDANE, METHOD OF OBTAINING THEM AND A HEMOSTATIC PHARMACEUTICAL PREPARATION BASED THEREON” (TASHKENTSKY GOSUDARSTVENNY UNIVERSITET IMENI V.I. LENINA, priority 1988, dated 1990).
Counter-ions that a name gives are not always drawn.

Experiments:
[1] = system: blood coagulation system; experiment: Comparative clinical study of hemostatic effect against dicynone; type: in vivo; settings: twenty post-operation patients, 20 minutes after introduction, p < 0.05
Description: The pharmaceutical preparation according to the present invention and dicynone were subjected to a comparative study for their hemostatic effect. Twenty post-operation patients (cardiorevivification department). The preparations were administered in the amount of […]. For the determination of the hemostatic effect determined by the functional state of the blood coagulation system the following characteristics were studied: thromboelastogram, the time of recalcification of citrate plasma and the plasma tolerance towards heparin. 20 minutes after the introduction of dicynone the parameter of the time of reaction of the rate of formation of thromboplastin was decreased by 32%, after administration of the preparation according to the present invention - by 75%, the time of coagulation was reduced, respectively, by 2'1 and 43%, t,ie time of recalcification of plasma decreased by 43 and 61% respectively, tolerance of plasma to heparin increased by 36 and 52%, respectively (at an error of p < 0.05).

[2] = system: hemostatic effect; settings: after administration to patients; cited from earlier work
[3] = system: blood coagulation; experiment: Blood coagulation in dogs after hypodermal administration of a 20% oily solution; type: in vivo; settings: 50 mg/kg hypodermally; for Time of blood coagulation / Fibrinolytic activity of blood / Time of plasma recalcification / Tolerance of plasma to heparin / Fibrinogen: mean M; for Time of blood coagulation: prior 318.0; for Fibrinolytic activity of blood: prior 41.0; for Time of plasma recalcification: prior 106.0; for Tolerance of plasma to heparin: prior 214.0; for Fibrinogen: prior 435.0
Description: (§1) The pharmacological studies of the hemostatic activity of the compounds according to the present invention was conducted in vivo and in vitro with the use of biochemical tests and by means of a thromboelasto- graph.
[…] For the cuvette of the thromboelasto- graph the blood was taken in the amount of 0.36 ml, while for biochemical tests -up to 10 ml (as the con- servant use was made of a 1.34% solution of sodium oxalate which was added in the ratio of 1:9).
The compound according to the invention , viz. ? 3,18-dihydroxy-9,13-epoxylabdan-15-16-olide was administered to dogs (a group of 5 animals) in the dose of 50 mg/kg of the animal's bodymass hypodermally as a 20% oily solution.

[4] = system: mice; experiment: LD50, subcutaneous 20% oily solution; type: in vivo; settings: subcutaneously (hypodermal)
Description: The LD50 was determined on mice (a group of 30 animals with. a bodymass of 20-21 g). The mice were administered with 3,18-dihydroxy-9,13-epoxylabdan-15,16-olide subcutaneously (a 20% oily solution). In the case of this manner of administration (i.e. hypodermal one) the LD50 was equal to more than 2,000 mg/kg of the animal's bodymass.

[5] = system: rats, dogs; settings: in vivo
[6] = system: blood coagulation; experiment: Thromboelastogram in dogs after administration of the compound; type: in vivo; settings: 10 mg/kg
[7] = system: white non-descipt mice; experiment: Acute toxicity, intraperitoneal; type: in vivo
Description: The compound according to the present invention, i.e. 3,16,18-trihydroxy-3,13-epoxylabdan-15-ic acid sodium salt trihydrate was tested for an acute toxicity.

[8] = system: heparin; experiment: Effect on heparin
[9] = system: thrombocytes; experiment: Effect on thrombocytes
Description: Furthermore, the compound according to the present invention increases the number of thrombocytes and activates adhesion and aggregation of thrombocytes.

[10] = system: blood coagulation; experiment: Thromboelastogram in vitro; type: biochemical; settings: for Time of the reaction of blood coagulation, R / Coagulation index, C: in vitro, experiment (O)
Description: as §1
The effect of the compound according to the present invention , viz. 3,1,18-trihydroxy-9,13-epofil- abdan-15-ic acid sodium salt trihydrate on hemostasis was studied in vitro with the use of a thromboelastogram.

[11] = system: blood coagulation system; experiment: Biochemical tests of the blood coagulation system in dogs, intravenous; type: in vivo; settings: dog, 25 mg/kg intravenously; for Time of blood coagulation / Tolerance of the plasma to heparin / Trombin time / Time of plasma recalcification: mean M; for Time of blood coagulation: 10 animals, initial 5.1; for Tolerance of the plasma to heparin: initial 6.8; for Trombin time: initial 17.0; for Time of plasma recalcification: initial 117.0
Description: as §1
(§2) The blood for examination was taken from an opened dog's thigh vein prior to administration of the compound and 10, 30, 60, 90 and 120 min thereafter. For the cuvette of the thromboelasto- graph the blood was taken in the amount of 0.36 ml, while for biochemical tests -up to 10 ml (as the con- servant use was made of a 1.34% solution of sodium oxalate which was added in the ratio of 1:9).
In another series of experiments the effect of the compound according to the present invention was studied in biochemical tests.

[12] = system: local blood hemorrhage; experiment: Local blood hemorrhage, local application; type: in vivo; settings: local effect, concentration of 0.5%
Description: The study of the effect provided by the compound according to the present invention on the local blood hemorrhage has shown that the local effect of the compound in tne concentration of 0.5% lowers the flood loss by 83% and the hemorrhage duration is reduced by 60%.

[13] = system: blood coagulation; experiment: Thromboelastogram in dogs after administration of the compound; type: in vivo; settings: dog, 25 mg/kg; for Time of reaction of blood coagulation, R / Time of the clot formation K: arithmetic mean M; for Time of reaction of blood coagulation, R: 10 animals, initial 23.0; for Time of the clot formation K: initial 20.0
Description: as §1, §2
The next series of experiments - administration of the compound according to the present invention in the dose of 25 mg/kg of the animals' bodymass.

[14] = 30 minutes after administration
[15] = 60 minutes after administration
[16] = 90 minutes after administration
[17] = 120 minutes after administration

For `O=S(=O)(O)c1cc(O)ccc1O` [dicynone, 2,5-dihydroxybenzenesulphonate-j-diethylammonium salt], the “time of recalcification of plasma decreased by” value [1] was 43%, the “tolerance of plasma to heparin increased by” value [1] was 36% and the “time of reaction of the rate of formation of thromboplastin decreased by” value ([1]; amount of 75 g as printed) was 32%.

In the case of `CC1(S(=O)(=O)[O-])CC(=O)c2ccccc2C1=O.[Na+]` (stereo not drawn) [sodium 2,3-dihydro-2-methyl-1,4-naphthoquinone-2-sulphonate], the “hemostatic effect is noted within” value [2] is listed as 12 to 18 h.

With “3,18-dihydroxy-9,13-epoxylabdan-15,16-olide” the “blood coagulation time decreases by” value ([3]; 20% oily solution) was 51%, the “time of recalcification decreases by” value ([3]; 20% oily solution) was 32% and the “tolerance of the plasma to heparin was increased by” value ([3]; 20% oily solution) was 37%. For the same compound, the “Time of blood coagulation” value ([3]; 20% oily solution, 60 min after administration) was 269.0 s, the “Time of blood coagulation” value ([3]; 20% oily solution, 120 min after administration) was 218.0 s and the “Time of blood coagulation” value ([3]; 20% oily solution, 180 min after administration) was 159.0 s. The “Fibrinolytic activity of blood” value ([3]; 60 min after administration) was 53.0%, the “Time of plasma recalcification” value ([3]; 60 min after administration) was 102.0 s and the “Tolerance of plasma to heparin” value ([3]; 60 min after administration) was 192.0 s. For the same compound, the Fibrinogen ([3]; 60 min after administration) was 387.0 mg%, the “Fibrinolytic activity of blood” value ([3]; 120 min after administration) was 54.0% and the “Time of plasma recalcification” value ([3]; 120 min after administration) was 84.0 s. For the same compound, the “Tolerance of plasma to heparin” value ([3]; 120 min after administration) was 138.0 s, the Fibrinogen ([3]; 120 min after administration) was 361.0 mg% and the “Fibrinolytic activity of blood” value ([3]; 180 min after administration) was 43.0%. The “Time of plasma recalcification” value ([3]; 180 min after administration) was 72.0 s, the “Tolerance of plasma to heparin” value ([3]; 180 min after administration) was 135.0 s and the Fibrinogen ([3]; 180 min after administration) was 293.0 mg%. For the same compound, the LD50 [4] was “more than 2,000 mg/kg of the animal's bodymass”.

For “3,16,18-trihydroxy-9,13-epoxylabdan-15-ic acid sodium salt trihydrate”, the local irritation effect [5] was “neither provided any local irritation effect”, the “process of blood coagulation” value [6] was “promoted” and the LD50 ([7]; intraperitoneal administration) was “over 2,000 mg/kg of the animal's bodymass”. For the same compound, the “death of the animals” value ([7]; intraperitoneal, 1,000 and 2,000 mg/kg) was “no death”, the effect on heparin [8] was “did not prevent the effect of heparin but weakened it” and the “adhesion and aggregation of thrombocytes” value [9] was “activates”. For the same compound, the number of thrombocytes [9] was “increases”, the “Time of the reaction of blood coagulation, R” value (“Time of the reaction … R” below) ([10]; 0.01 mg, control 26.0) was 7.0 mm and the “Time of the reaction … R” value ([10]; 0.1 mg, control 11.0) was 8.0 mm. The “Coagulation index, C” value ([10]; 0.1 mg, control 19.6) was 20.8 mm, the “Coagulation index, C” value ([10]; 1 mg, control 23.0) was 8.0 mm and the “Time of the reaction … R” value ([10]; 5 mg, control 18.0) was 32.0 mm. For the same compound, the “Coagulation index, C” value ([10]; 5 mg, control 19.0) was 3.4 mm, the “parameter R (the time of reaction of blood coagulation)” value ([10]; in vitro, 0.01, 0.1, 0.2 and 1.0 mg per 0.26 ml of blood) was “substantially reduces” and the “blood coagulation time is shortened by” value [11] was 35-40%. For the same compound, the “thrombin time is reduced by” value [11] was 30-35%, the “time of plasma recalcification shortened by” value [11] was 33-39% and the “tolerance of plasma to heparin is increased by” value [11] was 30-40%. For the same compound, the “Time of blood coagulation” value [11, 14] was 3.9 min, the “Time of blood coagulation” value [11, 15] was 3.7 min and the “Time of blood coagulation” value [11, 16] was 3.0 min. The “Time of blood coagulation” value [11, 17] was 3.4 min, the “Tolerance of the plasma to heparin” value [11, 14] was 4,8 min and the Trombin time [11, 14] was 12.0 s. The “Time of plasma recalcification” value [11, 14] was 78.0 s, the “Tolerance of the plasma to heparin” value [11, 15] was 4.6 min and the Trombin time [11, 15] was 12.0 s. The “Time of plasma recalcification” value [11, 15] was 79.0 s, the “Tolerance of the plasma to heparin” value [11, 16] was 4.3 min and the Trombin time [11, 16] was 11.0 s. For the same compound, the “Time of plasma recalcification” value [11, 16] was 74.0 s, the “Tolerance of the plasma to heparin” value [11, 17] was 4.1 min and the Trombin time [11, 17] was 11.0 s. For the same compound, the “Time of plasma recalcification” value [11, 17] was 71.0 s, the “hemorrhage duration is reduced by” value [12] was 60% and the “lowers the flood loss by” value [12] was 83%. For the same compound, the “coagulation time K is reduced by” value [13] was 40-55%, the “factor C (coagulation index) increased by” value [13] was 71-133% and the “Time of reaction of blood coagulation, R” value ([13]; column 2 (30 min by the note to Table 3)) was 10.0 mm. The “Time of reaction of blood coagulation, R” value ([13]; column 3 (60 min by the note to Table 3)) was 12.0 mm, the “Time of reaction of blood coagulation, R” value ([13]; column 4 (90 min by the note to Table 3)) was 9.0 mm and the “Time of reaction of blood coagulation, R” value ([13]; column 5 (120 min by the note to Table 3)) was 11.0 mm. For the same compound, the “Time of the clot formation K” value ([13]; fifth value column (120 min by the note to Table 3)) was 9.0 mm, the “Time of the clot formation K” value ([13]; fourth value column (90 min by the note to Table 3)) was 10.0 mm and the “Time of the clot formation K” value ([13]; second value column (30 min by the note to Table 3)) was 12.0 mm. For the same compound, the “Time of the clot formation K” value ([13]; third value column (60 min by the note to Table 3)) was 11.0 mm.
